These results are taken from PMC8037948, “Assessing the In Vitro Inhibitory Effects on Key Enzymes Linked to Type-2 Diabetes and Obesity and Protein Glycation by Phenolic Compounds of Lauraceae Plant Species Endemic to the Laurisilva Forest” (Molecules, 2021).

Experiment [1] addresses T1, rat α-glucosidase (intestinal acetone powder from rat).
T1 construct: gene Si; supernatant of rat intestinal acetone powder (Sigma-Aldrich), crude extract; several alpha-glucosidases
In words: p-nitrophenyl alpha-D-glucopyranoside hydrolysis, absorbance at […] nm. It counts as biochemical. As to conditions: alpha-pNPG, 0.1 M phosphate pH 6.9, 37 °C, 20 min; crude intestinal extract.

Experiment [2] has as its target T2, human aldose reductase (HAR) (Homo sapiens, UniProt P15121).
T2 construct: gene AKR1B1; commercial enzyme from Prozomix
The experiment can be described thus: NADPH absorbance at […] nm. It counts as biochemical.

Molecules are shown by their SMILES.

The compound `OC[C@H]1NC[C@H](O)[C@@H](O)[C@@H]1O` [1-Deoxynojirimycin] registered a α-Glucosidase in experiment [1] of 0.01 ± 0.01 mg/mL. A word on the IC50: it is the concentration at which inhibition is half-maximal. Compound `Oc1cc(O)c2c(c1)O[C@H](c1ccc(O)c(O)c1)[C@@H](O)C2` [(+)-Catechin] had an IC50 in experiment [2] of 2.62 mM. `C[C@H]1O[C@H](O[C@H]2[C@H](O)[C@@H](O)[C@@H](O[C@H]3[C@H](O)[C@@H](O)C(O)O[C@@H]3CO)O[C@@H]2CO)[C@H](O)[C@@H](O)[C@@H]1N[C@H]1C=C(CO)[C@@H](O)[C@H](O)[C@H]1O` (stereo partly drawn) [Acarbose] came in with a α-Glucosidase in experiment [1] of 0.12 ± 0.01 mg/mL.
